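Where inhibition never reached the appropriate level, the endpoint shown equals the highest concentration tested. Otherwise, values were interpolated linearly from a five-concentration, 48-hour dose response in 96-well plates. At the GI50, growth is halved. TGI: concentration producing complete growth inhibition.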
Key:
Test in all cases: NCI anticancer screen, dose series, 48 h
OVCAR-8 ovarian = test system: OVCAR-8 ovarian
HL-60(TB) leukemia = test system: HL-60(TB) leukemia
SN12C renal = test system: SN12C renal
HT29 colon = test system: HT29 colon
CAKI-1 renal = test system: CAKI-1 renal
SNB-19 CNS = test system: SNB-19 CNS
SF-539 CNS = test system: SF-539 CNS
COLO 205 colon = test system: COLO 205 colon
BT-549 breast = test system: BT-549 breast
MDA-MB-435 = test system: MDA-MB-435

Row | Structure (SMILES) | TGI (OVCAR-8 ovarian) [µM] | TGI (HL-60(TB) leukemia) [µM] | TGI (SN12C renal) [µM] | TGI (HT29 colon) [µM] | TGI (CAKI-1 renal) [µM] | TGI (SNB-19 CNS) [µM] | TGI (SF-539 CNS) [µM] | TGI (COLO 205 colon) [µM] | TGI (BT-549 breast) [µM] | GI50 (OVCAR-8 ovarian) [µM] | GI50 (SN12C renal) [µM] | GI50 (HT29 colon) [µM] | GI50 (BT-549 breast) [µM] | GI50 (CAKI-1 renal) [µM] | GI50 (SNB-19 CNS) [µM] | GI50 (SF-539 CNS) [µM] | GI50 (MDA-MB-435) [µM] | TGI (MDA-MB-435) [µM] | GI50 (COLO 205 colon) [µM] | GI50 (HL-60(TB) leukemia) [µM]
1 | COc1ccc(C(=O)CC2=Nc3nnc(CCCCCCCc4nnc5n4C(=O)C(CC(=O)c4ccc(OC)cc4)=N5)n3C2=O)cc1 | > 100 | > 100 | > 100 | > 100 | > 100 | > 100 | > 100 | > 100 |  |  |  |  |  |  |  |  |  |  |  | 
2 | COc1cc2c(cc1OC)C1Cc3ccc(OC)c(OC)c3C[N+]1([O-])CC2 (stereo not drawn) | > 100 |  | > 100 | > 100 | > 100 | > 100 | > 100 |  |  |  |  |  |  |  |  |  |  |  |  | 
3 | C1CN(P2(N3CC3)=NP(N3CC3)(N3CC3)=NP(N3CC3)(N3CC3)=N2)CCO1 (stereo not drawn) | > 100 | > 100 | > 100 | > 100 | > 100 | > 100 | > 100 | > 100 |  |  |  |  |  |  |  |  |  |  |  | 
4 | O=C1CNC(=O)c2[nH]cnc2N1 | > 100 | > 100 | > 100 | > 100 |  | > 100 | > 100 | > 100 |  |  |  |  |  |  |  |  |  |  |  | 
5 | CC1CC(C)C2OC2(C)C[C@H](C)C(=O)NC(C)C(=O)N(C)[C@H](Cc2c(Br)[nH]c3ccccc23)C(=O)N[C@@H](c2ccc(O)cc2)CC(=O)O1 (stereo partly drawn) | > 52.7 | 0.783 | > 100 |  | 4.71 | 0.544 | 0.383 | 0.145 |  |  |  |  |  |  |  |  |  |  |  | 
6 | COc1ccc2c(c1)NC1(O)c3ccccc3C(=O)C21O (stereo not drawn) | > 100 | > 100 | > 100 | > 100 | > 100 | > 100 | > 100 | > 100 |  |  |  |  |  |  |  |  |  |  |  | 
7 | COC(=O)C1CC(OC(C)=O)C=C2C(=O)CCC21 (stereo not drawn) | 37.6 | 29.5 | 41.9 |  | 55.8 | 60.3 | 50.6 | 34.4 |  |  |  |  |  |  |  |  |  |  |  | 
8 | CC(C)(C)N/N=C(\C(=O)Nc1nc(=S)[nH][nH]1)C1C(=O)Nc2ccccc2S1=O (stereo not drawn) | > 100 | > 100 | > 100 | > 100 | > 100 | > 100 | > 100 | > 100 |  |  |  |  |  |  |  |  |  |  |  | 
9 | NC(=O)c1cccc(OCC(O)CO)c1 (stereo not drawn) | > 100 | > 100 | > 100 | > 100 | > 100 | > 100 | > 100 | > 100 | > 100 |  |  |  |  |  |  |  |  |  |  | 
10 | COc1cc(NS(C)(=O)=O)ccc1NCc1c2ccccc2nc2ccccc12 | 99.1 | 47.4 | > 100 | > 100 | > 100 | > 100 | 65.2 | > 100 |  |  |  |  |  |  |  |  |  |  |  | 
11 | Cc1nc(N)nc(N)c1CCCc1ccccc1 | > 100 | 71.7 | 51.9 | > 100 | > 100 | > 100 | > 100 | > 100 |  |  |  |  |  |  |  |  |  |  |  | 
12 | O=C(Nc1ccccc1-c1nn(CN2CCNCC2)c(=S)n(CN2CCNCC2)c1=O)C(F)(F)F | 53.5 | 43.2 | 46.1 | 57.5 | 55.2 | 48.1 | 35.3 | 31 |  |  |  |  |  |  |  |  |  |  |  | 
13 | Cc1cc(C)c(C(=O)O)c(SSc2cc(C)cc(C)c2C(=O)O)c1 | > 100 | > 100 | > 100 | > 100 | > 100 | > 100 | > 100 | > 100 |  |  |  |  |  |  |  |  |  |  |  | 
14 | ClCc1ccccc1Cn1cnc2c(Cl)ncnc21 | 5.21 |  | 8.72 | > 100 | 4.14 | > 100 | 24.2 | > 100 | 5.51 | 2.22 | 3.37 | 3.56 | 2 | 1.83 | 5.38 | 10.7 | 3.01 | 9.49 | 3.89 | 
15 | C=CCC1(C(=O)OC(C)(C)C)C(OC)=C(C(=O)OC(C)(C)C)C2C1C(C(=O)OC(C)(C)C)=C(OC)C2(CC=C)C(=O)OC(C)(C)C (stereo not drawn) | > 100 | > 100 | > 100 |  |  | > 100 | > 100 | > 100 |  |  |  |  |  |  |  |  |  |  |  | 
16 | O=C(C#Cc1ccccc1)C1=Cc2ccccc2OC1 | 5.85 | > 100 | > 100 | 5.02 | 3.47 | 29.6 |  | 3.93 | 5.16 |  |  |  |  |  |  |  |  | 12.5 |  | 
17 | O=C(Nc1ccc(F)cc1)Nc1ccc(Br)c(C(F)(F)F)c1 | 15.2 | 5.19 | 11.5 | 10.9 |  | 15.6 | 8.43 | 3.27 | 7.4 | 2.95 | 2.91 | 2.3 | 2.05 |  | 3.42 | 2.58 | 2.4 | 8.59 | 1.72 | 1.87
18 | CC1=NOC(=O)/C1=C/c1ccc([N+](=O)[O-])cc1 | > 100 | > 100 | > 100 | > 100 | > 100 | > 100 | > 100 | > 100 |  |  |  |  |  |  |  |  |  |  |  | 
19 | Cc1cccc(C)c1N1C(=O)C(=O)C(c2nc3ccccc3s2)/C(=N/NC(=O)c2ccccc2O)C1=O (stereo not drawn) | > 100 | 43.1 | > 100 | > 100 | > 29.8 | > 79.8 | 59.5 | > 86.9 |  |  |  |  |  |  |  |  |  |  |  | 
20 | C=C1C(=O)O[C@H]2[C@H]1CC/C(COC(=O)OC/C1=C/CC[C@@]3(C)O[C@H]3[C@H]3OC(=O)[C@@H](CN(C)C)[C@@H]3CC1)=C\CC[C@@]1(C)O[C@@H]21 | 10.2 | 0.845 | 10.2 | 2.47 |  | 18.3 | 4.4 | 1.93 | 2.8 | 2.31 | 2.79 | 0.996 | 1.41 |  | 4.67 | 1.8 | 1.81 | 4.31 | 0.487 | 0.233
21 | C/C(CC(=O)Nc1ccccc1C)=N/NS(=O)(=O)c1ccc(C)cc1 | > 100 | > 100 |  | > 100 |  |  | > 100 | > 100 |  |  |  |  |  |  |  |  |  |  |  | 
22 | CCOc1ccc(NCC2CC/C(=C\c3ccccc3OC)C2=O)cc1 (stereo not drawn) | 13 | > 23.7 | 19.4 | 7.78 | 25.4 | 30 | 23.9 | 5.59 |  |  |  |  |  |  |  |  |  |  |  | 

Reference: PubChem BioAssay (NCI)
